Assay results from PubChem BioAssay AID1963840 (Molecular Pharmacology Branch, DTP, NCI, 2024).
Where “and” joins values, the source holds several entries; their conditions need not be identical. Identical values can stand only once.

Tested on: 695427-040-R-J1-PDC complex spheroid viability
Test: Anticancer human tumor 695427-040-R-J1-PDC patient-derived colon adenocarcinoma cell line growth inhibition [POLQ]
Details: for viability, T/C: stronger effect = lower value
Procedure: Multicellular complex tumor spheroid response to Polymerase (POL) inhibitors (novobiocin, ART-558, RP6685) in combination with a variety of drugs and investigational agents in selected tumor cell lines
The POL inhibitors (novobiocin, ART-558, and RP6685) were evaluated both individually and in combination with standard of care and investigational anticancer small molecules within a complex spheroid model of solid tumors. . Complex spheroids include a stromal component modeled by human endothelial cells (HUVEC) and fibroblasts modeled by human mesenchymal stem cells (MSCs). The concentration ranges selected for each drug and investigational agent were based upon clinically achievable concentrations if the clinical Cmax of the agent was known.
Compounds. The drugs and investigational agents: novobiocin (NSC847541), ART-558 (NSC835418), RP-6685 (NSC848927), peposertib (NSC802822), ceralasertib (NSC780249), elimusertib (NSC800525), camonsertib (NSC841442), AZD-1390 (NSC803789), olaparib (NSC753686), talazoparib (NSC767125), rucaparib (NSC756644), sotorasib (NSC818433), MRTX-1133 (NSC836407), SN-38 (NSC673596), topotecan (NSC609699), epotoside (NSC141540), doxorubicin (NSC123127), gemcitabine (NSC613327), 5-fluorouracil (NSC19893), paclitaxel (NSC125973), vemurafenib (NSC761431), MSA-2 (NSC828583), SN-011 (NSC837082), adavosertib (NSC754352), prexasertib (NSC758257), carboplatin (NSC241240) and oxaliplatin (NSC266046), were obtained from the National Cancer Institute (NCI) Developmental Therapeutics Program Chemical Repository (21). The FDA-approved anticancer drug set is available from the Developmental Therapeutics Program at https://dtp.cancer.gov/organization/dscb/obtaining/. […] The stock solutions were prepared in dimethyl sulfoxide (DMSO, Sigma-Aldrich, St. Louis, MO, cat. D2650), except for the platinum compounds which were prepared in saline (Quality Biological, Gaithersburg, MD, cat. 114-055-101), at 800-fold the tested concentration and stored at -70 degrees C prior to their use. All drugs and investigational agents were tested over a range starting from a high concentration at or near the clinical Cmax and decreasing in half-log increments. If the clinical Cmax for an agent had not been determined, the highest concentration tested was 10 microM, except for SN-38, which was tested at a high concentration of 1 microM.
Cell Culture. All cells were maintained in an incubator at 37 degrees C and 5% CO2 with 95% humidity. The PDC lines were cultured according to standard operating procedures established by the NCI PDMR (https://pdmr.cancer.gov). Table 3 of the manuscript, lists the cell lines along with the number of the three cell types plated to form the mct-spheroids and media for tumor cell growth. After thawing, all PDC lines, except 997537-175-T-J1-PDC and 415267-285-R-J2-PDC, were cultured in Matrigel-coated flasks prepared with a working solution of 1X Ham's F-12 nutrient mix, without supplementation (Thermo Fisher Scientific, cat. 11765054), 100 U/mL penicillin-streptomycin (Thermo Fisher Scientific, cat. 15140122), and 2.5% Matrigel (Corning Inc., Corning, NY, cat. 354248) for the first three passages. The two PDC lines 997537-175-T-J1-PDC and 415267-285-R-J2-PDC were cultured on uncoated flasks. The 857933-349-R-J2-PDC line was cultured in 6C/Colon 1B media containing advanced DMEM/F-12 (Thermo Fisher Scientific, cat. 12634028), 10 mM HEPES (Thermo Fisher Scientific, cat. 15630080), 1X GlutaMAX supplement (Thermo Fisher Scientific, cat. 35050061), 0.1 mg/mL primocin (InvivoGen, San Diego, CA, cat. ant-pm-2), 10% defined fetal bovine serum, heat inactivated (HyClone Laboratories Inc., Logan, UT, cat. SH30070.03HI), 50% L-WRN conditioned media (ATCC, cat. CRL-3276), 1.25 mM N-Acetyl-L-cysteine (Sigma-Aldrich, cat. A9165), 10 mM nicotinamide (Sigma-Aldrich, cat. N0636), 1X B-27 supplement (Thermo Fisher Scientific, cat. 17504044), 1X N-2 supplement (Thermo Fisher Scientific, cat. […]

[1] = curve of first compound, second compound 0.0316 µM
[2] = curve of first compound, second compound 0.1 µM
[3] = curve of first compound, second compound 0.316 µM
[4] = curve of first compound, second compound 1 µM
[5] = curve of first compound, second compound 3.16 µM
[6] = curve of first compound, second compound 10 µM
[7] = second compound 0.0316 µM, first compound 0.0316 µM
[8] = second compound 0.0316 µM, first compound 0.1 µM
[9] = second compound 0.0316 µM, first compound 0.316 µM
[10] = second compound 0.0316 µM, first compound 1 µM
[11] = second compound 0.1 µM, first compound 0.0316 µM
[12] = second compound 0.1 µM, first compound 0.1 µM
[13] = second compound 0.1 µM, first compound 0.316 µM
[14] = second compound 0.1 µM, first compound 1 µM
[15] = second compound 0.316 µM, first compound 0.0316 µM
[16] = second compound 0.316 µM, first compound 0.1 µM
[17] = second compound 0.316 µM, first compound 0.316 µM
[18] = second compound 0.316 µM, first compound 1 µM
[19] = second compound 1 µM, first compound 0.0316 µM
[20] = second compound 1 µM, first compound 0.1 µM
[21] = second compound 1 µM, first compound 0.316 µM
[22] = second compound 1 µM, first compound 1 µM
[23] = second compound 3.16 µM, first compound 0.0316 µM
[24] = second compound 3.16 µM, first compound 0.1 µM
[25] = second compound 3.16 µM, first compound 0.316 µM
[26] = second compound 3.16 µM, first compound 1 µM
[27] = second compound 10 µM, first compound 0.0316 µM
[28] = second compound 10 µM, first compound 0.1 µM
[29] = second compound 10 µM, first compound 0.316 µM
[30] = second compound 10 µM, first compound 1 µM
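Further: spheroids exposed to compounds for seven days.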
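Wherever viability, T/C is given: 100% = DMSO vehicle control viability.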

Question: How did the viability, T/C (compound 0.0316 µM) turn out when `Nc1ccc(C#CCN(C(=O)Cc2ncc(C(F)(F)F)cc2C(F)(F)F)c2ccc(F)cc2)nn1` was run?
Answer: Its viability, T/C is 91.6% [middle of 13 runs].

Question: What about the viability, T/C (compound 0.1 µM) of the same compound?
Answer: The viability, T/C was 102% [middle of 13 runs].

Question: And the viability, T/C (compound 0.316 µM)?
Answer: The viability, T/C was 101% [middle of 13 runs].

Question: What about the viability, T/C (compound 1 µM) of the same compound?
Answer: Its viability, T/C is 101% [middle of 13 runs].

Question: And the viability, T/C (compound 3.16 µM)?
Answer: The viability, T/C was 102% [middle of 13 runs].

Question: What about the viability, T/C (compound 10 µM) of the same compound?
Answer: The viability, T/C was 105% [middle of 12 runs].

Question: And the IC50 (compound alone, run of 11/06/2023)?
Answer: Its IC50 is greater than 10 µM.

Question: Which results are given for `O=c1[nH]cc(F)c(=O)[nH]1`?
Answer: viability, T/C (compound 0.0316 µM): 105% (2×) and 104%; viability, T/C (compound 0.1 µM): 95.7% and 106% and 103%; viability, T/C (compound 0.316 µM): 93.2% and 102% and 99.6%; viability, T/C (compound 1 µM): 102% and 100% (2×); viability, T/C (compound 3.16 µM): 102% and 115% and 103%; viability, T/C (compound 10 µM): 96% and 111% and 99.7%; IC50 (curve of compound): > 10 µM

Question: What does the source list for `Nc1ccn(C2OC(CO)C(O)C2(F)F)c(=O)n1` (configuration not stated)?
Answer: viability, T/C (compound 0.0316 µM): 90% and 87.3% (2×); viability, T/C (compound 0.1 µM): 76.8% and 89.3% and 78.8%; viability, T/C (compound 0.316 µM): 70.9% and 83.7% and 72%; viability, T/C (compound 1 µM): 71.8% and 78.5% and 69%; viability, T/C (compound 3.16 µM): 64.6% and 81.7% and 60.8%; viability, T/C (compound 10 µM): 57.5% and 64.6% and 53%; IC50 (curve of compound): > 10 µM

Question: What does the source list for `CCc1cc2c(N3CCc4c(cc(Cn5ccnc5)cc4-c4cn(C)nc4C(F)(F)F)C3=O)cc(C)nc2c(OC)n1` + COC1C(OC(N)=O)C(O)C(Oc2ccc3c(O)c(NC(=O)c4ccc(O)c(CC=C(C)C)c4)c(=O)oc3c2C)OC1(C)C?
Answer: IC50 [1]: > 10 µM; IC50 [2]: > 10 µM; IC50 [3]: > 10 µM; IC50 [4]: > 10 µM; IC50 [5]: > 10 µM; IC50 [6]: > 10 µM; viability, T/C [7]: 106%; viability, T/C [8]: 103%; viability, T/C [9]: 111%; viability, T/C [10]: 107%; viability, T/C (second compound 0.0316 µM, first compound 3.16 µM): 108%; viability, T/C (second compound 0.0316 µM, first compound 10 µM): 99.1%; viability, T/C [11]: 114%; viability, T/C [12]: 104%; viability, T/C [13]: 105%; viability, T/C [14]: 96.5%; viability, T/C (second compound 0.1 µM, first compound 3.16 µM): 111%; viability, T/C (second compound 0.1 µM, first compound 10 µM): 117%; viability, T/C [15]: 107%; viability, T/C [16]: 112%; viability, T/C [17]: 106%; viability, T/C [18]: 109%; viability, T/C (second compound 0.316 µM, first compound 3.16 µM): 110%; viability, T/C (second compound 0.316 µM, first compound 10 µM): 97.8%; viability, T/C [19]: 108%; viability, T/C [20]: 108%; viability, T/C [21]: 105%; viability, T/C [22]: 101%; viability, T/C (second compound 1 µM, first compound 3.16 µM): 120%; viability, T/C (second compound 1 µM, first compound 10 µM): 99.3%; viability, T/C [23]: 117%; viability, T/C [24]: 109%; viability, T/C [25]: 113%; viability, T/C [26]: 105%; viability, T/C (second compound 3.16 µM, first compound 3.16 µM): 115%; viability, T/C (second compound 3.16 µM, first compound 10 µM): 97.3%; viability, T/C [27]: 116%; viability, T/C [28]: 118%; viability, T/C [29]: 110%; viability, T/C [30]: 109%; viability, T/C (second compound 10 µM, first compound 3.16 µM): 117%; viability, T/C (second compound 10 µM, first compound 10 µM): 122%

Question: Which results are given for `CCc1c2c(nc3ccc(O)cc13)-c1cc3c(c(=O)n1C2)COC(=O)[C@]3(O)CC` + Nc1ccc(C#CCN(C(=O)Cc2ncc(C(F)(F)F)cc2C(F)(F)F)c2ccc(F)cc2)nn1?
Answer: IC50 [1]: > 1 µM; IC50 [2]: > 1 µM; IC50 [3]: > 1 µM; IC50 [4]: > 1 µM; IC50 [5]: > 1 µM; IC50 [6]: > 1 µM; viability, T/C (second compound 0.0316 µM, first compound 0.00316 µM): 116%; viability, T/C (second compound 0.0316 µM, first compound 0.01 µM): 102%; viability, T/C [7]: 89.6%; viability, T/C [8]: 90.8%; viability, T/C [9]: 81.2%; viability, T/C [10]: 69.9%; viability, T/C (second compound 0.1 µM, first compound 0.00316 µM): 114%; viability, T/C (second compound 0.1 µM, first compound 0.01 µM): 107%; viability, T/C [11]: 95.7%; viability, T/C [12]: 93.5%; viability, T/C [13]: 81.2%; viability, T/C [14]: 60%; viability, T/C (second compound 0.316 µM, first compound 0.00316 µM): 117%; viability, T/C (second compound 0.316 µM, first compound 0.01 µM): 109%; viability, T/C [15]: 85.3%; viability, T/C [16]: 92.6%; viability, T/C [17]: 85.8%; viability, T/C [18]: 68.3%; viability, T/C (second compound 1 µM, first compound 0.00316 µM): 107%; viability, T/C (second compound 1 µM, first compound 0.01 µM): 98.7%; viability, T/C [19]: 88.4%; viability, T/C [20]: 85.3%; viability, T/C [21]: 83.6%; viability, T/C [22]: 52.5%; viability, T/C (second compound 3.16 µM, first compound 0.00316 µM): 101%; viability, T/C (second compound 3.16 µM, first compound 0.01 µM): 99.2%; viability, T/C [23]: 97.9%; viability, T/C [24]: 92%; viability, T/C [25]: 77%; viability, T/C [26]: 60.6%; viability, T/C (second compound 10 µM, first compound 0.00316 µM): 101%; viability, T/C (second compound 10 µM, first compound 0.01 µM): 94.8%; viability, T/C [27]: 86.7%; viability, T/C [28]: 85%; viability, T/C [29]: 72.7%; viability, T/C [30]: 57.1%

Question: What does the source list for `COc1cc(C2c3cc4c(cc3C(OC3OC5COC(C)OC5C(O)C3O)C3COC(=O)C23)OCO4)cc(OC)c1O` (configuration not stated)?
Answer: viability, T/C (compound 0.0316 µM): 95.6% and 105% and 95.5%; viability, T/C (compound 0.1 µM): 91.4% and 94.1% and 99%; viability, T/C (compound 0.316 µM): 96% and 96.6% and 109%; viability, T/C (compound 1 µM): 97.5% (2×) and 101%; viability, T/C (compound 3.16 µM): 91.6% and 99.4% and 94.1%; viability, T/C (compound 10 µM): 90.2% and 90.4% and 80.9%; IC50 (curve of compound): > 10 µM
